Data as given in patent publication US20240390301A1, “COMBINATIONS OF PERIPHERAL 5-HT2A RECEPTOR ANTAGONISTS AND CENTRAL 5-HT2A RECEPTOR AGONISTS” (priority 2021, published 2024).
Read-outs that look alike come from different tables or passages of the source.

Tests used:
in vivo [1] = details: metabolite after 10 mg/kg SC of parent (sarpogrelate or Compound 14a)
Method: The pharmacokinetics of peripheral 5-HT2A antagonists were studied in the plasma (Tables 11 and 12) and brains (Table 13 and 14) of rats after subcutaneous (SC) dosing. The results were used to interpret the in vivo pharmacological results.
Animals. Male Sprague Dawley rats, aged 8-12 weeks. were used in these studies. Four rats were housed in each cage. […] Temperature and humidity were recorded by an auto-controlled data logger system. All animals were provided laboratory rodent diet and were fasted for 4 h pre-dose and 2 h post-dose. Reverse osmosis water treated with ultraviolet light was provided ad libitum. Animals were randomly assigned to treatment groups.
Drugs and Drug Administration. Test compounds were prepared as described above or commercially obtained. They were administered subcutaneously (SC) at a dose of 1 or 10 mg/kg (as indicated, calculated based on the free base) and at a volume of 5 mL/kg body weight.
Sample Collection and Bioanalysis. […] SC. […] For both studies, immediately after blood collection, plasma was harvested by centrifugation at 4,000 rpm for 10 min at 4° C. and samples were stored at −70±10° C. until bioanalysis. Following blood collection, animals were immediately sacrificed, the abdominal vena-cava was cut open, and the whole body was perfused from the heart using 10 mL of normal saline, and brain samples were collected from all animals. After isolation, brain samples were rinsed three times in ice-cold normal saline (for 5-10 seconds/rinse using ˜5-10 mL normal saline in disposable petri dish for each rinse) and dried on blotting paper. Brain samples were homogenized using ice-cold phosphate-buffered saline (pH 7.4). Total homogenate volume was three times the tissue weight. All homogenates were stored at −70±10° C. until bioanalysis. For bioanalysis, 25 μL aliquots of plasma/brain study samples or spiked plasma/brain calibration standards were added to individual pre-labeled micro-centrifuge tubes followed by 100 μL of an internal standard solution (glipizide, 500 ng/ml in acetonitrile) except for blanks, where 100 μL of acetonitrile was added. Samples were vortexed for 5 minutes and then centrifuged for 10 minutes at 4,000 rpm at 4° C. Following centrifugation, 100 μL of each clear supernatant was transferred to a 96-well plate and analyzed with a fit-for-purpose LC-MS/MS method, with authentic samples of each analyte used for calibration and identification.

[2] = Method 2: 3 times diluted homogenate, 37° C.
Method: Method 1. Pooled frozen rat brain homogenate was thawed in a water bath at 37° C. prior to the experiment. Using an Apricot automation workstation, 98 μL/well of blank brain homogenate or 100 mM PBS were added to all 96-well reaction plates (Blank, T0, T10, T30, T60, and T120). […] All reaction plates containing mixtures of compound and brain homogenate were incubated at 37° C. in a water bath for up to 120 minutes. At the end of incubation, 500 uL of stop solution (200 ng/mL tolbutamide and 200 ng/mL labetalol in ACN) was added to precipitate protein and mixed thoroughly for 20 minutes at 4° C. After centrifugation at 4,000 rpm and 4° C. for 20 minutes, an Apricot automation workstation was used to transfer 150 μL of supernatant from each reaction plate to its corresponding bioanaylsis plate, which was shaken for 10 minutes prior to LC-MS/MS analysis.
Method 2. Rat brain tissue homogenate samples were prepared by diluting one volume of whole rat brain tissue with two volumes of dialysis buffer (phosphate buffered saline pH 7.4-0.1 M sodium phosphate and 0.15 M sodium chloride) to yield 3 times diluted homogenate. Test compounds were spiked into 400 μL aliquots (n=3) of rat brain homogenate and the resulting mixtures were incubated at 37° C. […] An aliquot (100 μL) of each sample was transferred to a 96-well deep plate and analyzed by LC-MS/MS.

Rat plasma stability = type: in vitro ADME; details: Method 2: 5 μM, 37° C.
Method: The results were used to confirm that the plasma protein binding results were not confounded by poor plasma stability.
Method 1. […] Plasma was centrifuged at 4,000 rpm for 5 min and any clots were remove.
Method 2. […]

in vivo [3] = type: in vivo, rat
Method: The ratio of free brain concentration to free plasma concentration was calculated at 0.167 h and 0.5 h post administration for each compound using the data presented in the above examples and the following formula.
A smaller value for the free brain: free plasma ratio indicates greater peripheral restriction and therefore, better suitability for the methods of the present disclosure.

[4] = Rat plasma protein binding (equilibrium dialysis)
Method: Method 1. Aliquots of 50 μL loading matrix containing test compound (2 μM final incubation concentration) or control compound in triplicate were transferred to a Sample Collection Plate. The samples were matched with opposite blank buffer to obtain a final volume of 100 μL, with a volume ratio of matrix: Dialysis Buffer of 1:1 (v:v) in each well. Stop solution (200 ng/ml tolbutamide and 200 ng/mL labetalol in ACN) was added to these TO samples of test compound and control compound. The plate was sealed and shaken at 800 rpm for 10 min. An aliquot of 100 μL of the loading matrix containing test compound or control compound was transferred to the donor side of each dialysis well in triplicate and 100 μL of the Dialysis Buffer was loaded to the receiver side of the well. Then the plate was rotated at approximately 100 rpm in a humidified incubator with 5% CO2 at 37±1° C. for 4 hours. At the end of the dialysis, aliquots of 50 μL samples from the buffer side and matrix side of the dialysis device were taken into new 96-well plates (Sample Collection Plates). An equal volume of opposite blank matrix (buffer or matrix) in each sample was added to reach a final volume of 100 μL, with volume ratio of matrix: Dialysis Buffer of 1:1 (v:v) in each well. All samples were further processed by protein precipitation before LC-MS/MS analysis.
Method 2. Aliquots (200 μL) of positive controls and test compounds at 5 μM (triplicates) were separately added to the plasma chamber and […] of phosphate buffered saline (pH 7.4) was added to the buffer chamber of the inserts. After sealing the rapid equilibrium dialysis (RED) device with an adhesive film, dialysis was performed in an incubator at 37° C. with shaking at 100 RPM for 4 hours. Aliquots (50 μL) of warfarin and test compounds were added to four 0.5 mL micro fuse tubes. Two aliquots were frozen immediately (0-minute sample). The other two aliquots were incubated at 37° C. for 4 hours along with the RED device. Following dialysis, an aliquot of 50 μL was removed from each well (both plasma and buffer side) and diluted with an equal volume of opposite matrix (dialyzed with the other matrix) to nullify the matrix effect. Similarly, 50 μL of buffer was added to recovery and stability samples. An aliquot of 100 μL was used for LC-MS/MS analysis following protein precipitation with ACN containing internal standard.

in vitro = experiment: in vitro; set-up: fraction unbound at 4 h: dose or concentration left out as unconfirmed; details: rat, brain homogenate
Method: Various putative peripheral 5-HT2A receptor antagonists were tested for binding to rat brain homogenate via equilibrium dialysis, with the results summarized in Table 7.
Method 1. Rat brain homogenate was thawed in a water bath at room temperature and then incubated at 37° C. for 10 min before use. Aliquots of 50 μL of loading matrix containing test compound (2 μM final incubation concentration) or control compound in triplicate were transferred to a Sample Collection Plate. The samples were matched with opposite blank buffer to obtain a final volume of 100 μL with a volume ratio of matrix: Dialysis Buffer of 1:1 (v:v) in each well. The stop solution (200 ng/mL tolbutamide and 200 ng/ml labetalol in ACN) was immediately added to these T0 samples of test compound and control compound. The plate was sealed and shaken at 800 rpm for 10 min. T0 samples were stored at 2-8° C. pending further processing along with other post-dialysis samples. An aliquot of 100 μL of the loading matrix containing test compound or control compound was transferred to the donor side of each dialysis well in triplicate and 100 μL of the Dialysis Buffer was loaded to the receiver side of the well. Then the plate was rotated at approximately 100 rpm in a humidified incubator with 5% CO2 at 37±1° C. for 4 hours. At the end of the dialysis. aliquots of 50 μL from the buffer side and matrix side of the dialysis device were taken into new 96-well plates (Sample Collection Plates). An equal volume of opposite blank matrix (buffer or matrix) in each sample was added to reach a final volume of 100 μL, with a volume ratio of matrix: Dialysis Buffer of 1:1 (v:v) in each well. All samples were further processed by protein precipitation before LC-MS/MS analysis.
Method 2. Aliquots (200 μL) of test compounds and positive controls at […] in rat brain homogenate (triplicates) were added to the rapid equilibrium dialysis (RED) chamber of dialysis inserts. A 350 μL aliquot of dialysis buffer was added to the buffer chamber of the inserts. After sealing the RED device with an adhesive film, dialysis was conducted at 37° C. with shaking at 100 RPM for 4 hours. Following dialysis, an aliquot of 50 μL was removed from each well (brain homogenate and buffer) and diluted with an equal volume of opposite matrix to nullify the matrix effect. Similarly, buffer was added to recovery and stability samples. An aliquot of 100 μL was used for LC-MS/MS analysis following protein precipitation with ACN containing internal standard.

5-HT2C receptor = biological target: T1, 5-HT2C receptor (Homo sapiens, UniProt P28335); experiment: biochemical; type: binding
T1 construct: WuXi AppTec (Hong Kong) Limited (contract laboratory that ran the assay)
T1 sequence (P28335 33-458): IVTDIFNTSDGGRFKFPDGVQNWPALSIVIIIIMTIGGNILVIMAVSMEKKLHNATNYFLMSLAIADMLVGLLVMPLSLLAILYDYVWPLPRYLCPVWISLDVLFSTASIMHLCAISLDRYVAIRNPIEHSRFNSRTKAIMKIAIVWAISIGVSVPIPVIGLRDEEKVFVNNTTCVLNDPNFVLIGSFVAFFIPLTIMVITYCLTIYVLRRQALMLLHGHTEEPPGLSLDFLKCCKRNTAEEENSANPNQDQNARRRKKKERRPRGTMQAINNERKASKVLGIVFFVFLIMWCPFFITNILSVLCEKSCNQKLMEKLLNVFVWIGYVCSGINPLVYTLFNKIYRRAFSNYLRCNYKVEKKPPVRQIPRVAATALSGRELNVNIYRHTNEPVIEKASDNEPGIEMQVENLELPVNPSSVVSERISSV

5-HT2A receptor = biological target: T2, 5-HT2A receptor (Homo sapiens, UniProt P28223); experiment: 5-HT2A radioligand binding with [3H]ketanserin
T2 construct: WuXi AppTec (Hong Kong) Limited (contract laboratory that ran the assay)
Method: The binding affinities of key peripheral 5-HT2A receptor antagonists, as well as reference 5-HT2A agonists, at the ketanserin binding site of the 5-HT2A receptor and the mesulergine binding site of the 5-HT2C receptor were determined in radioligand binding experiments.
Method. Affinity of the test compounds for the 5-HT2A and 5-HT2C receptors was determined in radioligand binding experiments with [^3H] ketanserin and [^3H] mesulergine, respectively, by WuXi AppTec (Hong Kong) Limited, using methods adapted from the literature and under conditions described in Table 1.

[5] = 10 mg/kg PK data, quantified as metabolite in PK studies of sarpogrelate and Compound 14a
[6] = HEK293 stable cell line, 2 nM [3H]mesulergine, 1 h, 25° C., read-out: 5-HT2C Ki (nM) ([3H]mesulergine)
[7] = HEK293 stable cell line, 1 nM [3H]ketanserin, 1 h, 25° C., read-out: 5-HT2A Ki (nM) ([3H]ketanserin)

T2 sequence (P28223 whole entry): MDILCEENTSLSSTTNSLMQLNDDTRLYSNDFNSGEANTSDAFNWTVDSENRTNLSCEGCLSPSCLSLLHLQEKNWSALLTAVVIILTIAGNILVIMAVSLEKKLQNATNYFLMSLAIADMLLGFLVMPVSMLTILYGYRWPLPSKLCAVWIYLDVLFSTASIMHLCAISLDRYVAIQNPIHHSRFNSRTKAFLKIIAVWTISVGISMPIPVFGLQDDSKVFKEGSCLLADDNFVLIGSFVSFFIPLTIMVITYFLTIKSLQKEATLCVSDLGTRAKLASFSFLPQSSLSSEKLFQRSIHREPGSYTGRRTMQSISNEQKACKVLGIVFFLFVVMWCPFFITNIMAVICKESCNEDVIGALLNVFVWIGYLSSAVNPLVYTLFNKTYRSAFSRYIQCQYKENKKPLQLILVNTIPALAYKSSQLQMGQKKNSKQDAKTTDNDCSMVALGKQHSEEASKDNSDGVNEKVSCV

Structure (SMILES): COc1cccc(CCc2ccccc2OCC(O)CN(C)C)c1 (stereo not drawn) [sarpogrelate M1]
- Mean brain concentration 0.167 h (ng/g), analyzed as metabolite (in vivo [1]; 0.167 h): 32.7 ng/g
- Mean brain concentration 0.5 h (ng/g), analyzed as metabolite (in vivo [1]; 0.5 h): 97.4 ng/g
- Mean plasma concentration 0.167 h (ng/mL), analyzed as metabolite (in vivo [1]; plasma, 0.167 h): 54.1 ng/mL
- Mean plasma concentration 0.5 h (ng/mL), analyzed as metabolite (in vivo [1]; plasma, 0.5 h): 63.6 ng/mL
- % Remaining (120 minutes), rat brain homogenate [2]: 84%
- % Remaining (120 minutes), rat plasma (Rat plasma stability): 94%
- Free Brain:Free Plasma (0.167 h), metabolite (in vivo [3]; [5]): 0.52
- Free Brain:Free Plasma (0.5 h), metabolite (in vivo [3]; [5]): 1.31
- Peripheral restriction / brain penetration (in vivo [3]; from free brain:free plasma ratios): substantial brain penetration
- Mean % bound (rat plasma protein binding) ([4]; Method 2: RED, 5 μM, 4 hours, 37° C.): 97.2%

Structure (SMILES): CC(C)COc1ccc(CNC(=O)N(Cc2ccc(F)cc2)C2CCNCC2)cc1.Cl [Compound 7, 1-(4-fluorobenzyl)-3-(4-isobutoxybenzyl)-1-(piperidin-4-yl)urea hydrochloride]
- fraction unbound at 4 h (in vitro): 0.002
- Mean brain concentration 0.167 h (ng/g), analyzed as metabolite (in vivo [1]; 0.167 h): BLQ
- Mean brain concentration 0.5 h (ng/g), analyzed as metabolite (in vivo [1]; 0.5 h): BLQ
- % Remaining (120 minutes), rat brain homogenate [2]: 69%
- % Remaining (120 minutes), rat plasma (Rat plasma stability): 96%
- fraction unbound at 4 h, 5 μM ([4]; rat, plasma, pH 7.4): 0.038

Structure (SMILES): COc1cc(CC(C)N)c(OC)cc1I (stereo not drawn) [DOI, 4-iodo-2,5-dimethoxyamphetamine]
- Ki (5-HT2C receptor): 70 nM

Structure (SMILES): COc1cc(CCN)cc(OC)c1OC [mescaline]
- Ki (5-HT2C receptor; [6]): > 1880 nM
- Ki (5-HT2A receptor; [7]): 17400 nM

Structure (SMILES): CCCc1cc(OC)c(CC(C)N)cc1OC (stereo not drawn) [DOPR, 2,5-dimethoxy-4-propylamphetamine]
- Ki (5-HT2C receptor; [6]): 16.6 nM
- Ki (5-HT2A receptor; [7]): 17.6 nM

Structure (SMILES): CCN(C)CCc1c[nH]c2ccc(F)cc12 [Compound 5-F-MET, 5-fluoro-N-methyl-N-ethyltryptamine]
- Ki (5-HT2C receptor; [6]): 59 nM
- Ki (5-HT2A receptor): 140 nM

Structure (SMILES): CCN(C)CCc1c[nH]c2cccc(O)c12 [Compound 4-HO-MET, 4-hydroxy-N-methyl-N-ethyltryptamine]
- Ki (5-HT2A receptor): 106 nM
